In patent publication US20040265877A1, “Methods for detecting presence of cellular constituents” (Marantech Holding, LLC, priority 2003, published 2004):

Experiments:
HeLa cells = assay: Binding/staining of HeLa cervical carcinoma cells; assay type: cell-based, human
Procedure: (§1) This example is directed to a reagent kit to determine the presence of cancer cells in cervical specimens (i.e., Pap (Papanicolaou test) smears).
Next, HeLa cells were mixed with epithelial (cheek) cells to create a simulated Pap smear.
(§2) TST solution (soluble TST) was prepared by adding 5 mg of TST to 1 ml of dd H2O. Inadvertent “grounding” of the TST was avoided. The solution was mixed gently and thoroughly by pipetting up and down. Formation of air bubbles and excessive agitation were avoided. The solution was centrifuged for 15 seconds at 1,000 rpm to settle excess TST. Soluble TST was added to a sample slide (picking up and depositing undissolved TST was avoided). The slide was incubated at room temperature for 10 minutes, followed by rinsing by either dipping the slide five times in a beaker of distilled water, or using the dual pipette method to remove excess TST. Dual pipette method: Using two pipettes, water was slowly added to the slide at one corner while the solution was simultaneously drawn up into the other pipette from a distal corner of the sample. Without intending to be bound by theory, the idea was to create somewhat of a flow across the sample, to gently wash it. The sample was quickly and gently blotted once or twice with a cloth wipe.
The enhancement solution was then prepared. One drop each of the 2-part enhancer was added to a microfuge tube. The mixture was vortexed for 40 seconds, and then immediately added it to the sample (an optional very brief centrifuge step at low speed in order to settle the liquid at the bottom of the tube was performed prior to addition to the sample). The sample was incubated at room temperature for 20-30 minutes. Optionally, the progress of the reaction under was observed using a light microscope. The slide was rinsed by either dipping the slide 5 times into a beaker of distilled water, or by the dual pipette method described above. The sample was quickly and gently blotted once or twice with a cloth wipe, and the sample was allowed to dry. The results were observed either under a light microscope or with the naked eye.

tumor cells (HeLa) = conditions: FIG. 7
From the text: (§3) A non-spectrophotometric characterization technique, i.e., scanning electron microscopy (SEM) was used with the procedure set forth in Example VIII.

[1] = test system: non-tumor cells (MCF-10A); conditions: FIGS. 10A-10B
From the text: as §3

CNOX [2] = conditions: soybean seed plasma protein; elevated concentrations far above 1 PPM
Procedure: (§4) NADH oxidase (NOX) activity was determined (as the disappearance of it measured spectrophotometrically at 340 nm) in a reaction mixture (25 mM Tris-MES buffer at pH 7.2, KCN 1 mM) to inhibit low levels of mitochondrial oxidase activity, and 150 micromoles […] at 37° C. with stirring. Activity was measured with pairs of Hitachi U3210 Spectrophotometers. Assays were initiated by the addition of NOX and tetrasilver tetroxide (Ag4O4) for one minute and were repeated on the same sample every 1.5 minutes over a 45-minute period. A mM absorption coefficient of 6.2 was used to determine specific activity.
(§5) Protein disulfide-thiol interchange activity associated with tNOX was measured using the dipyridyldithio substrate dithiodipyridine (DTDP). The assay was performed in 50 mM Tris-MES buffer (pH 7.0) and was initiated by the addition of 0.5 micromoles DTDP in 5 microliters DMSO as a control. The reaction was monitored by tracking an increase in absorption at 340 nm using DTDP, specific activity being calculated using a mM absorption coefficient of 6.2. The spectrophotometric assays were performed simultaneously with the two spectrophotometers and DMSO controls.
(§6) The procedure was repeated with plasma protein derived from soybean seeds containing CNOX growth regulator.

CNOX [3] = molecular target: CNOX (Homo sapiens, UniProt Q8TC92); conditions: MCF-10A human mammary epithelia; elevated concentrations far above 1 PPM
Procedure: as §4, §5, §6

[4] = test system: gynecological yeast infection; conditions: 10 ppm silver tetroxide and 40 ppm sodium persulfate; cited from earlier work
tNOX [5] = conditions: HeLa cells; concentration of one part per million (PPM)
Procedure: as §4, §5

tNOX [6] = molecular target: tNOX (Homo sapiens, UniProt Q16206); conditions: BT-20 mammary cancer cell line
Procedure: as §4, §5

athlete's foot = conditions: single case, solution of 100 ppm of the composition, topical; cited from earlier work
toenail fungus = conditions: single case, 25% suspension of the composition, topical; cited from earlier work
[7] = single intravenous injection at about 40 ppm of human blood; no reported loss of liver function; cited from earlier work
normal cells = test system: normal cells
Procedure: as §1, §2
The enhancement solution was then prepared. One drop each of the 2-part enhancer was added to a microfuge tube. […]

[8] = test system: Herpes virus infected cells; conditions: Pap smear samples, FIG. 4
Procedure: as §2
The enhancement solution was then prepared. One drop each of the 2-part enhancer was added to a microfuge tube. The mixture was vortexed for 40 seconds, and then immediately added it to the sample (an optional very brief centrifuge step at low speed in order to settle the liquid at the bottom of the tube was performed prior to addition to the sample). […]

[9] = test system: liver cells expressing tNOX; conditions: after computer photography enhancement, 40x
Procedure: (§7) Frozen liver slices were obtained, and the two step process described below for non-aqueous testing was performed. The results were viewed with a microscope and computer enhanced. Frozen liver slices from a wild type mouse (non-cancerous) were compared with frozen liver slices from a transgenic mouse expressing tNOX on its liver cells.
(§8) TST solution was prepared by adding 5 mg of TST to 1 ml of dd H2O. Inadvertent “grounding” of the TST was avoided. The solution was mixed gently and thoroughly by pipetting up and down. Air bubbles and excessive agitation were avoided. The solution was centrifuged for 15 seconds at 1,000 rpm to settle excess TST.
(§9) Soluble TST was added to a sample section, while avoiding undissolved TST. The sample was incubated at room temperature for 10 minutes. Excess TST was removed by dipping the section several times in a beaker of distilled water. The sample was quickly and gently blotted once or twice with a cloth wipe.
(§10) The enhancement solution was prepared by placing one drop each of the two-part enhancer into a microfuge tube. The mixture was vortexed for 40 seconds, and immediately added to the sample. The solution was optionally centrifuged briefly at low speed in order to settle the liquid at the bottom of the tube prior to addition to the sample. The sample was incubated at room temperature for 20-30 minutes.

wild type mouse liver = conditions: after computer photography enhancement, 40x
Procedure: as §7, §8, §9, §10

Chain of CNOX (Homo sapiens, UniProt Q8TC92) (Q8TC92 whole entry): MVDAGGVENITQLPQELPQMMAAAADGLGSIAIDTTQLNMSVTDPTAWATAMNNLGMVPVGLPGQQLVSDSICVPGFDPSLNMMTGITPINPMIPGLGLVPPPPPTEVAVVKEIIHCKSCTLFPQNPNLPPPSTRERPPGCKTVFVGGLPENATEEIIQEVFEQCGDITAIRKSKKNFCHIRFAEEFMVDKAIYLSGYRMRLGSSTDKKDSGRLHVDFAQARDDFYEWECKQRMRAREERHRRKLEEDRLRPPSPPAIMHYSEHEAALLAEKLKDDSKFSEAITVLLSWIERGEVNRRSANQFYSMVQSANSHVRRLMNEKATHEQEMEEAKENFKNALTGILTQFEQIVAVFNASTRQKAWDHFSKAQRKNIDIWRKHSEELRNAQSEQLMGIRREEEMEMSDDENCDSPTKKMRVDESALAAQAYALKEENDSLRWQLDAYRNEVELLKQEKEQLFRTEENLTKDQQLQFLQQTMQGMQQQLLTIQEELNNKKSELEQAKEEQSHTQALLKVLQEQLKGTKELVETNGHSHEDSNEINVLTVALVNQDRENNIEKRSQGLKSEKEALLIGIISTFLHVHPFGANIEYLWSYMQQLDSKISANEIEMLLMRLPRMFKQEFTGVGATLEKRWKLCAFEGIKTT
Chain of tNOX (Homo sapiens, UniProt Q16206) (Q16206 whole entry): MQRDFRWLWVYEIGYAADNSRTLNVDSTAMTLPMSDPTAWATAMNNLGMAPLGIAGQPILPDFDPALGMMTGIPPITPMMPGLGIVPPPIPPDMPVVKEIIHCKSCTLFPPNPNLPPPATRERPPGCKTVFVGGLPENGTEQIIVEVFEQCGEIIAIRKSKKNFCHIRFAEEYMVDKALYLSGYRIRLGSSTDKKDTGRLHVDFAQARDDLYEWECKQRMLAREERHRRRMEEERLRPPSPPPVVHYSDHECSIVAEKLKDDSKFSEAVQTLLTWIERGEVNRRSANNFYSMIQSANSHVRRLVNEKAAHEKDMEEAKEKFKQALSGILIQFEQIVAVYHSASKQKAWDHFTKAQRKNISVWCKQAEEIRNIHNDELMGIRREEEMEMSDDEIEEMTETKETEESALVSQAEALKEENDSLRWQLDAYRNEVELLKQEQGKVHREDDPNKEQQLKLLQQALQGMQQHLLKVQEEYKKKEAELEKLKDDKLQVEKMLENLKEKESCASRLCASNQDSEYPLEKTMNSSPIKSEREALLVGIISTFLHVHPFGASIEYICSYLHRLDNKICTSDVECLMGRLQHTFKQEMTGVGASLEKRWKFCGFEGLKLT

Row | SMILES | staining of HeLa cells (HeLa cells; Fe3O4, FIGS. 9A-9C) | binding by SEM (tumor cells (HeLa)) | binding by SEM [1] | effect on CNOX (CNOX [2]) | effect on CNOX (CNOX [3]) | outcome of infection [4] | tNOX activity inhibition (tNOX [5]) | tNOX activity inhibition (tNOX [6]) | outcome of infection (athlete's foot) | outcome of infection (toenail fungus) | liver adverse effect [7] | binding to normal cells (normal cells) | nuclear staining (normal cells; Pap smear samples, FIG. 4) | staining of infected cells [8] | binding to HeLa cultured cervical cell lines (HeLa cells) | nuclear staining (HeLa cells; Pap smear samples, FIG. 4) | distinguishing HeLa cells from epithelial (cheek) cells (HeLa cells; simulated Pap smear, HeLa mixed with cheek cells) | staining of liver slices [9] | staining of liver slices (wild type mouse liver)
1 | [O]=[Fe].[O]=[Fe][O][Fe]=[O] [Fe3O4, triiron tetroxide] | selectively stained |  |  |  |  |  |  |  |  |  |  |  |  |  |  |  |  |  | 
2 | [Ag+].[Ag+].[Ag+].[Ag+].[O-2].[O-2].[O-2].[O-2] [tetrasilver tetroxide] |  | actual binding | non-binding | not affected at all | not affected at all | curing | inhibited completely | the same as in Example VIfI | cure | cure | hepatomegaly | without binding | no nuclear staining | brown staining | bound covalently | black staining of nuclei | selective binding with and darkening of the cytoplasmic membrane of the HeLa cells | black nuclei and black borders | did not
